Results taken from ChEMBL document CHEMBL1201862, “PubChem BioAssay data set” (2004).
Activity calls are given as the source filed them.

How the values were obtained:
[1] = target: T1, Oxysterols receptor LXR-beta (Homo sapiens, UniProt P55055); assay type: functional, cell-based
T1 sequence (P55055 whole entry): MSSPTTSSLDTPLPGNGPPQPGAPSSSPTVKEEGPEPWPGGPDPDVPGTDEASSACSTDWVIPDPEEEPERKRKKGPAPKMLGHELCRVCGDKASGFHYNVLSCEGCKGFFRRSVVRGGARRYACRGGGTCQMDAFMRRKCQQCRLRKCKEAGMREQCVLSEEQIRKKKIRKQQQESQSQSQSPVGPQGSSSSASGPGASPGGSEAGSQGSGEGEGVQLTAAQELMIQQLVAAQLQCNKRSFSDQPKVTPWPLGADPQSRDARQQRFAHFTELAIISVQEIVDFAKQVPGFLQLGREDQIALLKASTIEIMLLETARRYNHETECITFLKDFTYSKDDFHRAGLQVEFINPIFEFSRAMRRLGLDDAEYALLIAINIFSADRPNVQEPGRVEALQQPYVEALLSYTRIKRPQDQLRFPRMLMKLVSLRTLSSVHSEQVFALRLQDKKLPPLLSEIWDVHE

Protein skinhead-1 = target: T2, Protein skinhead-1 (Caenorhabditis elegans, UniProt P34707); assay type: functional
T2 sequence (P34707 whole entry): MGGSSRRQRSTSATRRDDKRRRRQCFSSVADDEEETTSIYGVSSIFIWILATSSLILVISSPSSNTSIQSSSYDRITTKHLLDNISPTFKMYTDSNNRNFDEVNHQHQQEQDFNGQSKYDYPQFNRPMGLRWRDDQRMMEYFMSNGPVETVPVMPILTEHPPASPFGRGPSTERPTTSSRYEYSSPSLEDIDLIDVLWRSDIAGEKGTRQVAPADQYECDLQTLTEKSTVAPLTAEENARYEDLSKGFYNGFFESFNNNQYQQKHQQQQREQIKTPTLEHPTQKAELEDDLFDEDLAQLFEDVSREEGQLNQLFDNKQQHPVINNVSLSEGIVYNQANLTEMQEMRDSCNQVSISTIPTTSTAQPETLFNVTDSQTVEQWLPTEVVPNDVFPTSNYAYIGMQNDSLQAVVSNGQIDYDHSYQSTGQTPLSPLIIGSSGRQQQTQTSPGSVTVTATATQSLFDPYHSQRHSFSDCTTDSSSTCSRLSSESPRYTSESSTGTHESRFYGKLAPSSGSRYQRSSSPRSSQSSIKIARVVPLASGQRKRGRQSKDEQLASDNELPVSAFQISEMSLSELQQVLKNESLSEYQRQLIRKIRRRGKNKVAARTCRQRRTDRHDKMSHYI

[2] = target: T1, Oxysterols receptor LXR-beta; assay type: functional, cell-based; remark: listed apart in the source
[3] = target: Disintegrin and metalloproteinase domain-containing protein 17 (Homo sapiens, UniProt P78536); test: exosite inhibitors of ADAM17, dose response, biochemical (AID 743260)
[4] = inhibition of ADAM10 peptide cleavage – biochemical, FRET peptide substrate, recombinant human ADAM10, selectivity assay for ADAM17 exosite inhibitor project, dose response (AID 743259);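 further: ADAM10 enzyme cleaving a FRET peptide substrate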
[5] = COV434 cell viability loss – plate reader, dry powder, SA7, cytotoxicity control for PAX8 inhibitor project, dose response (AID 743145); assay type: functional, cell-based
[6] = PAX8-dependent cell viability loss – plate reader, dry powder, dose response (AID 743049); assay type: functional, cell-based
[7] = inhibitors acting on PAX2 in cells – cell-based, plate reader, dry powder samples, selectivity assay for PAX8 inhibitor project, dose response (AID 743048); assay type: functional;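 further: HEK293 cells carrying a WT1 promoter luciferase reporter driven by expressed Pax2; potency is for inhibition of Pax2 driven reporter signal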
Paired box protein Pax-8 = Paired box protein Pax-8 (Homo sapiens, UniProt Q06710); test: PAX8 transcriptional activity inhibition in RMG-I – RMG-I cells, luciferase, cherry-pick, dose response (AID 687027); assay type: functional, cell-based;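 further: luciferase reporter driven by Pax8 target thyroperoxidase promoter measured by SteadyGlo luminescence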
[8] = PAX5 cellular inhibition readout – cell-based, plate reader, dry powder samples, selectivity assay for PAX8 inhibitor project, dose response (AID 743047); assay type: functional;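 further: HEK293 cells carrying a Pax5 driven CD19 promoter luciferase reporter; potency of inhibitors that lower reporter luminescence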
[9] = P. falciparum Dd2 growth inhibitors, dose response, SYBR Green, cherry-picked samples (AID 1159567); assay type: functional, cell-based
[10] = toxicity to human HepG2 hepatoma cells – cell-based, plate reader, dry powder samples, cytotoxicity control, dose response (AID 1159569); assay type: functional;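 further: inhibitor potency with signal falling toward the positive control level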
[11] = Dd2 malaria parasite growth inhibition potency – SYBR Green, dry powder samples, dose response (AID 1159566); assay type: functional, cell-based;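 further: potency for growth inhibition with lower SYBR green DNA signal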
[12] = growth inhibition of PfATP4-mutant resistant parasites – NITD609-resistant line, SYBR Green, dry powder, dose response (AID 1159571); assay type: functional, cell-based;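 further: parasites synchronized at ring stage by sorbitol before testing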
[13] = growth inhibition of yeast DHODH-expressing 3D7 parasites – SYBR Green, dry powder samples, dose response (AID 1159570); assay type: functional, cell-based;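 further: parasite growth measured after 72 hours of compound exposure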
[14] = YAP1 overexpression rescue of CTGF inhibition – DLD1 cells, RT-qPCR, cherry-pick, mechanism study for YAP1 pathway inhibitor project, dose response (AID 1053127); assay type: functional, cell-based; details: DLD-1
[15] = toxicity to human hepatoma HepG2 cells – cell-based, cherry-picked samples, cytotoxicity control, dose response (AID 1159577); assay type: functional
[16] = general mammalian cell viability loss – activator set, cherry-pick, cytotoxicity control for miR-122 modulator project, dose response (AID 720690); assay type: functional, cell-based;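 further: HEK293T human cells scored for general mammalian cytotoxicity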
CAAX prenyl protease 2 = target: T3, CAAX prenyl protease 2 (Saccharomyces cerevisiae S288c, UniProt Q03530); assay type: biochemical
T3 sequence (Q03530 whole entry): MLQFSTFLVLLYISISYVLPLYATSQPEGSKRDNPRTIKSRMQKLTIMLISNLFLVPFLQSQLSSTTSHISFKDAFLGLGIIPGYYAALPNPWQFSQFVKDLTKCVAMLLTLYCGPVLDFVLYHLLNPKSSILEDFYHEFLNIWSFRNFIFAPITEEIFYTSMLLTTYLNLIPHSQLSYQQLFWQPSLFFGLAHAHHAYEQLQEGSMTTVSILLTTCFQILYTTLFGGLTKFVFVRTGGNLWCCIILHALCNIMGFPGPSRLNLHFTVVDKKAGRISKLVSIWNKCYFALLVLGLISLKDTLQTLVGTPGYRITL

[17] = viability loss in HepG2 liver cells – cell-based, ATP luminescence, cherry-pick, set 6, cytotoxicity control, dose response (AID 1053125); assay type: functional
[18] = M. tuberculosis growth inhibition, HTS (AID 449762); assay type: functional
[19] = microbe, parasite or virus in culture; assay type: functional; details: Mycobacterium tuberculosis
Estrogen receptor beta [20] = target: T4, Estrogen receptor beta (Homo sapiens, UniProt Q92731);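 further: recombinant ER-beta bound to coactivator SRC1 peptide in presence of estradiol agonist; inhibitors block coactivator peptide binding and lower the FRET signal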
Estrogen receptor = Estrogen receptor (Homo sapiens, UniProt P03372);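 further: potency for inhibiting coactivator peptide recruitment to the receptor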
Estrogen receptor beta [21] = target: T4, Estrogen receptor beta; test: blockers of SRC-3 recruitment to ERβ – biochemical, ELISA, streptavidin-HRP readout, orthogonal assay, confirmation (AID 1060)

T4 sequence (Q92731 whole entry): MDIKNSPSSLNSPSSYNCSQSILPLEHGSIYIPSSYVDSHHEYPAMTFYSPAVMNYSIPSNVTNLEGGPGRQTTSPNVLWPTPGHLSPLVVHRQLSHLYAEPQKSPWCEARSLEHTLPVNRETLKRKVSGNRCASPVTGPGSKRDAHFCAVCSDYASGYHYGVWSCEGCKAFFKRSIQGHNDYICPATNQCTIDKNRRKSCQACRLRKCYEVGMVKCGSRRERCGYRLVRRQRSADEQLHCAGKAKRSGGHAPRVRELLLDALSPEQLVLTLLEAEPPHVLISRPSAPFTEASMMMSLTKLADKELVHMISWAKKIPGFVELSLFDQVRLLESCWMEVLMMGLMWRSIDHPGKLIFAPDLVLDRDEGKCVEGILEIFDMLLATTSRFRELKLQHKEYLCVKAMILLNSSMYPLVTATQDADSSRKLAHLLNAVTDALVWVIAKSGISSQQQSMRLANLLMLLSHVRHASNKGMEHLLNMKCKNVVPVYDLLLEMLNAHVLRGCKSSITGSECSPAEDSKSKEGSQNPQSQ
Paired box protein Pax-8, sequence (Q06710 whole entry): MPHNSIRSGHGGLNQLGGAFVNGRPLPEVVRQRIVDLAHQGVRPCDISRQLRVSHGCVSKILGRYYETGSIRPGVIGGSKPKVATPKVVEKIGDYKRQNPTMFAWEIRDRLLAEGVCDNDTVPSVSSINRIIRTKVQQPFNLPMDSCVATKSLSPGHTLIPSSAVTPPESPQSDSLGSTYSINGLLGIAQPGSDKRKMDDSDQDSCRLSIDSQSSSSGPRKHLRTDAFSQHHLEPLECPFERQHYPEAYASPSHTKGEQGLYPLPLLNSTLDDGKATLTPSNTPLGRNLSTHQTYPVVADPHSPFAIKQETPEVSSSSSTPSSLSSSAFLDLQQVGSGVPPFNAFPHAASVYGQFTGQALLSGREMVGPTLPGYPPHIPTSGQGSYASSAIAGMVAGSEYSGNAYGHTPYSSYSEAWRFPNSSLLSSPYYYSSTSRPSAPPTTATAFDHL
Estrogen receptor, sequence (P03372 whole entry): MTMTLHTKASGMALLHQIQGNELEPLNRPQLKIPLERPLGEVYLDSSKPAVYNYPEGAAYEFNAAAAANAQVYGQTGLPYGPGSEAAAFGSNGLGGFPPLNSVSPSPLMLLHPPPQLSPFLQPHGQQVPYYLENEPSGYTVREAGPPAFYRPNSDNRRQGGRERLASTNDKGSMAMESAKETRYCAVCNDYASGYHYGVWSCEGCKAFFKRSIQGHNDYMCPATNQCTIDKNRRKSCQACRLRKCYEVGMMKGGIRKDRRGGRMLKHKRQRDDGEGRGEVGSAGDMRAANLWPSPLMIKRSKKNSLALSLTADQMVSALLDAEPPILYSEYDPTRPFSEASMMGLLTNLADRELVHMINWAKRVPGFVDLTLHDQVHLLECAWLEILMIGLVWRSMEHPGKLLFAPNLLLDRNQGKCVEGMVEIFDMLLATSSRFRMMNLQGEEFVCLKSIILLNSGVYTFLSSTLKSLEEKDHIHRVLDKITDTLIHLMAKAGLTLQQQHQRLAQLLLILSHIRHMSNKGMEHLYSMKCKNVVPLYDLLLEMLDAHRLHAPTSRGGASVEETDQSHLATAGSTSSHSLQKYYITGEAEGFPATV
Disintegrin and metalloproteinase domain-containing protein 17, sequence (P78536 whole entry, the tested form may be a part): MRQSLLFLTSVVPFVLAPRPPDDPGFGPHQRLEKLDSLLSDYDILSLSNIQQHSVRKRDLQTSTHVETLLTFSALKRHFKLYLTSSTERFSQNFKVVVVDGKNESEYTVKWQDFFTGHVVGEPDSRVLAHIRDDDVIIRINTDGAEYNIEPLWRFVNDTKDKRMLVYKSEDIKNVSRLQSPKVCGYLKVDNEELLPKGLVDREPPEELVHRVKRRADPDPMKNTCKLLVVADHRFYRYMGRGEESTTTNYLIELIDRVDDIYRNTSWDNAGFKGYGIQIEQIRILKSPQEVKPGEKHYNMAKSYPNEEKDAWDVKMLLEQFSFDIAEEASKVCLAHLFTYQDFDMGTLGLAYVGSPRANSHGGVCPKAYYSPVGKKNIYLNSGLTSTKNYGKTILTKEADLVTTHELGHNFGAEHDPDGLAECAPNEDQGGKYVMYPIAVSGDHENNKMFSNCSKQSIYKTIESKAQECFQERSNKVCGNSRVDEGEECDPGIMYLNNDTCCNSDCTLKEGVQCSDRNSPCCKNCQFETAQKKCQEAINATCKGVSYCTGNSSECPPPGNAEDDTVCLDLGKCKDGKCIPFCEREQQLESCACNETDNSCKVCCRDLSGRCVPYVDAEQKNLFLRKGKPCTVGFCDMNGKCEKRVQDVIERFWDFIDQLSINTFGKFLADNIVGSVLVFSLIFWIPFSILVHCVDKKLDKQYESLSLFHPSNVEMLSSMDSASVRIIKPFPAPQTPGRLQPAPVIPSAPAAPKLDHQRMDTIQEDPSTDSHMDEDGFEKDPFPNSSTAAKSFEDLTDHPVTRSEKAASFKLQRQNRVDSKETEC

Compound: c1ccc(CNC2=Nc3ccccc3CS2)nc1
- EC50 [1]: > 67.5 µM (inactive)

Compound: O=C(/C=C/Nc1ccc(F)c(Cl)c1)c1ccco1
- EC50 (cells): > 67.5 µM (inactive)
- IC50 (Protein skinhead-1): 25.2 µM (active)
- EC50 [2]: > 67.5 µM (inactive)

Compound: COc1ccc(S(=O)(=O)Nc2ccc(Nc3ccccc3)cc2)cc1
- IC50 [3]: > 69.5 µM (inactive)
- IC50 [4]: 12 µM (inactive)

Compound: C[C@H](CO)N1C[C@H](C)[C@@H](CN(C)S(=O)(=O)c2ccc(Cl)cc2)OCCCC[C@H](C)Oc2ccc(NS(=O)(=O)c3ccccc3)cc2C1=O
- AC50 [5]: 27.6 µM (active)
- AC50 [6]: 14 µM (active)
- AC50 [7]: 23.7 µM (active)
- AC50 (Paired box protein Pax-8): 6.52 µM (active)
- AC50 [8]: 26.3 µM (active)

Compound: C[C@@H]1CN([C@@H](C)CO)C(=O)c2ccccc2-c2ccccc2CO[C@H]1CN(C)C(=O)Nc1cccc(C(F)(F)F)c1
- AC50 [9]: 1.55 µM (active)
- AC50 [10]: > 100 µM (inactive)
- AC50 [11]: 1.03 µM (active)
- AC50 [12]: 2.38 µM (active)
- AC50 [13]: 0.779 µM (active)
- AC50 [14]: 8.76 µM (active)

Compound: CN(C)CC(=O)N1CCCCN2[C@@H](CO)[C@@H](c3ccc(/C=C/c4ccccc4)cc3)[C@@H]2C1
- AC50 [15]: 8.82 µM (active)
- AC50 [16]: 23.6 µM (active)
- AC50 [9]: 1.14 µM (active)

Compound: CCOC(=O)c1cc2c(=O)n3cccc(C)c3nc2n(CC(C)C)/c1=N/C(=O)c1ccco1
- AC50 (CAAX prenyl protease 2): 14 µM (active)
- AC50 [17]: > 52 µM (inactive)

Compound: CCCCCCCC(=O)N/N=C(/C)c1c(O)cc(C)oc1=O
- IC50 [18]: > 100 µM (active)
- CC50 [19]: > 40 µM (active)

Compound: CC(=N)/C(C#N)=C(/O)CSc1nnc(-c2ccc(OC(F)F)cc2)o1
- IC50 (Estrogen receptor beta [20]): 9.26 µM (active)
- IC50 (Estrogen receptor): 46.6 µM (not active)
- IC50 (Estrogen receptor beta [21]): 18.6 µM (not active)

Compound: Cc1ccc(/N=C/C2=C(O)C3(C)CCC2C3(C)C)cc1C (stereo not drawn)
- IC50 [18]: > 100 µM (active)
